Series [1] deals with IMR-32. Kind of series: Inhibition of MCH-mediated calcium release in whole IMR32 cells by FLIPR assay. Format: functional, cell-based. The conditions noted are these: Homo sapiens.
Series [2] concerns Rattus norvegicus. Kind of series: End-of-study drug concentration in inactin-anesthetized Sprague-Dawley rat brain. Type of series: functional.
Series [3] has as its system Rattus norvegicus. In words: End-of-study drug concentration in inactin-anesthetized Sprague-Dawley rat plasma. Type of series: functional.
For series [4], the system named is IMR-32. Kind of series: Inhibition of MCH-mediated calcium release in whole IMR32 cells at 10 uM by FLIPR assay. Format: functional. The conditions noted are these: Homo sapiens.
Series [5] concerns the target Melanin-concentrating hormone receptor 1 (Homo sapiens, UniProt Q99705). Kind of series: Displacement of [125I]MCH from MCHr1 expressed in IMR32 (I3.4.2) cells. Format: cell-based. A general note: Displacement assays read how much labelled ligand stays bound in the presence of the test substance.
For another series, the system named is Mus musculus. Kind of series: AUC in DIO mice brain at 10 mg/kg, po. More on the design: dose 10 mg/kg, route oral. The conditions noted are these: in vivo. Format: ADME, organism-based.
Series [6] can be described thus: AUC in DIO mice plasma at 10 mg/kg, po. Format: ADME, organism-based. The arrangement: dose 10 mg/kg, route oral. The conditions noted are these: mouse.

Sequence of Melanin-concentrating hormone receptor 1 (Q99705 whole entry): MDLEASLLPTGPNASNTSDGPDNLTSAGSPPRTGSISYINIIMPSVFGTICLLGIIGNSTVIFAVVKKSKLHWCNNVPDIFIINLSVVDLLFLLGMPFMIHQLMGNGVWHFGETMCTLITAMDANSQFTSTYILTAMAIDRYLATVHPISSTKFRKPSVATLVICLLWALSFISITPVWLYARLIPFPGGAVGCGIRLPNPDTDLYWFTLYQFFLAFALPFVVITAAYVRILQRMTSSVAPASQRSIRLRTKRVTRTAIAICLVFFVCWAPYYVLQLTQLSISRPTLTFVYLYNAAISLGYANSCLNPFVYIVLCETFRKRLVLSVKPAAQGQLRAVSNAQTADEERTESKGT

As to `O=C(Cc1ccc(OCc2ccccc2)cc1)Nc1ccc2cnn(CCN3CCCC3)c2c1`, the half-maximal inhibitory concentration (IC50) (in general, the point on the concentration scale where inhibition reaches its midpoint) with IMR-32 [1] turned out to be 11 nM. Besides, the Activity in the series with Rattus norvegicus [2] amounted to 10 µg/g; with Rattus norvegicus [3] it was 23 µM.

For the molecule `O=C(Cc1ccc(OCc2ccccc2)cc1)Nc1ccc2c(cnn2CCN2CCCC2)c1`, the inhibition (as a rule, the share of the control response that was lost under treatment) at 10 µM with IMR-32 [4] was 14%. In addition, the Activity with Rattus norvegicus [2] was 46 µg/g; in the series with Rattus norvegicus [3], 53 µM.

Take `CC(C)OCCNc1ncc(Cl)cc1C(=O)NC1CCN(Cc2ccc3c(c2)OCO3)CC1`: the half-inhibitory concentration (IC50) in the series with IMR-32 [1] came out at 25 nM. The Activity is 88 µg/g with Rattus norvegicus [2] and 44 µM in the series on Rattus norvegicus [3].

In the case of `O=C(NC1CCN(Cc2ccc3c(c2)OCO3)CC1)c1cc(Cl)ccc1NCc1nccs1`, in the series with IMR-32 [1], the IC50 worked out at 53 nM. Moreover, the Activity in the series with Rattus norvegicus [3] stood at 91 µM.

Turning to `COc1ccc2oc(O)c/c(=N\C3CCN(Cc4ccc5c(c4)OCO5)CC3)c2c1`, the IC50 with IMR-32 [1] is 11 nM; in series [5] it was 2 nM. The Activity came to 71 µg/g with Rattus norvegicus [2] and 272 µM in the series on Rattus norvegicus [3].

With `O=C(Nc1ccc(Oc2ccccc2)cc1)Nc1ccc2nn(CCN3CCCC3)cc2c1`, the IC50 in the series on IMR-32 [1] was 314 nM; in series [5] it was 46 nM. The Activity in the series on Rattus norvegicus [2] was 6 µg/g; with Rattus norvegicus [3], 558 µM.

As for `O=C(NC1CCN(Cc2ccc3c(c2)OCO3)CC1)c1cc(=O)c2cc(Cl)c(Cl)cc2o1`, the IC50 in the series on IMR-32 [1] was found to be 83 nM; in series [5] it was 3 nM. The Activity in the series on Rattus norvegicus [2] worked out at 63 µg/g; in the series on Rattus norvegicus [3], 42 µM.

With `COc1ccc(CC(=O)Nc2ccc3cnn(CCN4CCCC4)c3c2)cc1`, the IC50 in the series on IMR-32 [1] is above 10000 nM; in series [5] it was 3630 nM. The inhibition at 10 µM in the series on IMR-32 [4] was 14%. The Activity in the series on Rattus norvegicus [2] was 6 µg/g; with Rattus norvegicus [3], 39 µM.

Turning to `CC(C)OCCNc1ncc(Cl)cc1C(=O)NC1CCCN(Cc2ccc3c(c2)OCO3)C1` (configuration not stated), the inhibition at 10 µM in the series on IMR-32 [4] was 30%. Besides, the Activity in the series with Rattus norvegicus [2] is 138 µg/g; with Rattus norvegicus [3], 61 µM.

For `COc1ccc2c(=O)cc(C(=O)NC3CCN(Cc4ccc5c(c4)OCO5)CC3)oc2c1`, the AUC in the series with Mus musculus came to 4.4 µg·h/g; in series [6], 18700 ng·h/mL. The IC50 with IMR-32 [1] was found to be 73 nM; in series [5], 6 nM. The Activity with Rattus norvegicus [2] is 158 µg/g; with Rattus norvegicus [3] it was 66 µM.

As to `O=C(Cc1ccc(OCc2ccccc2)cc1)Nc1cccc2c1cnn2CCN1CCCC1`, the IC50 in the series with IMR-32 [1] came to 71 nM. The molecule also came in with an Activity with Rattus norvegicus [3] of 4 µM.

Turning to `O=C(Cc1ccc(Oc2ccccc2)cc1)Nc1ccc2c(cnn2CCN2CCCC2)c1`, the IC50 in the series with IMR-32 [1] was determined as 309 nM; in series [5], 78 nM. Moreover, the Activity in the series on Rattus norvegicus [3] is 2 µM.

For `O=C(Nc1ccc(Oc2ccccc2)cc1)Nc1ccc2c(cnn2CCN2CCCCCC2)c1`, the IC50 in the series on IMR-32 [1] is 103 nM; in series [5], 4 nM.

In the case of `O=C(Nc1ccc(Oc2ccccc2)cc1)Nc1ccc2nn(CCN3CC[C@H](O)C3)cc2c1`, the AUC in the series on Mus musculus stood at 0 µg·h/g; in series [6], 1020 ng·h/mL. Further, the IC50 in the series on IMR-32 [1] came out at 214 nM; in series [5], 57 nM. Besides, the Activity in the series on Rattus norvegicus [2] is 3 µg/g; in the series on Rattus norvegicus [3], 201 µM.

In the case of `O=C(Nc1ccc(Oc2ccccc2)cc1)Nc1ccc2c(cnn2CCN2CCCCC2)c1`, the half-maximal inhibitory concentration (IC50) in the series on IMR-32 [1] was found to be 136 nM; in series [5], 5 nM. The Activity with Rattus norvegicus [2] stood at 13 µg/g; in the series on Rattus norvegicus [3], 77 µM.

For `Clc1ccc2[nH]nc(NC3CCN(Cc4ccc5c(c4)OCO5)CC3)c2c1`, the values for the IC50 (in the series on IMR-32 [1]; in series [5]) were 376 nM and 16 nM, respectively. Moreover, the Activity with Rattus norvegicus [2] was determined as 30 µg/g; in the series on Rattus norvegicus [3], 22 µM.

With `O=C(Nc1ccc(Oc2ccccc2)cc1)Nc1ccc2c(cnn2CCN2CCCC2)c1`, the Activity with Rattus norvegicus [2] turned out to be 10 µg/g; in the series on Rattus norvegicus [3], 88 µM.

For the molecule `COc1ccc2nccc(NC3CCN(Cc4ccc5c(c4)OCO5)CC3)c2c1`, the results for the IC50 (in the series on IMR-32 [1]; in series [5]) were 74 nM and 10 nM, respectively.

For the origin of these results see ChEMBL document CHEMBL1146094, “Screening for cardiovascular safety: a structure-activity approach for guiding lead selection of melanin concentrating hormone receptor 1 antagonists” (J Med Chem, 2006).
